The record followed here is US20220095617A1, “PLANT GROWTH REGULATING AGENT” (IDEMITSU KOSAN CO.,LTD., priority 2019, published 2022).

Assay [1] deals with lettuce (Green Wave). Nature of the assay: Example 1: High-temperature stress Petri dish test (lettuce), comparison with other natural products. In kind it is in vivo. The following applies: 0.1 ppm in agar medium.
Assay [2] relates to lettuce (Green Wave). In words: Example 4: High-temperature stress Petri dish test (lettuce), comparison with flavonoids. Format: in vivo. The following applies: 0.1 ppm.
Assay [3] concerns lettuce (Green Wave). Nature of the assay: Example 2: High-temperature stress Petri dish test (lettuce), blending with neohesperidin.
Method: For seeds, 2% water agar medium (using water as the solvent), which was prepared such that hesperidin (Fujifilm Wako Pure Chemical Corporation; special-grade reagent) and neohesperidin (Fujifilm Wako Pure Chemical Corporation; special-grade reagent) were contained at the predetermined final concentrations shown in Table 2, was filled into square Petri dishes (“model number: D-210-16”, manufactured by As One Corporation). Before high-temperature treatment, lettuce (Green Wave, Takii & Co., Ltd.) was sown on 2% water agar medium, and lettuce seedlings on day 2 after the sowing were transplanted to the above-described agar medium to which the hesperidin and/or the like was/were added. At the time of the transplantation, the tip of the root was marked. Each Petri dish after the transplantation was placed in an incubator (“model number: FLI-2010A”, manufactured by EYELA) at an angle of 45° with respect to the bottom surface, and high-temperature treatment was carried out at 42° C. for 1.5 hours. Thereafter, culture was similarly performed at 23° C. for 2 days, and then the increase in the root length was evaluated in terms of elongation from the tip of the root of each seedling at the time of the transplantation. In addition, for evaluation of the effect of the mixture of hesperidin and neohesperidin in normal cultivation, culture was similarly performed at 23° C. without performing the high-temperature treatment, followed by evaluation of the increase in the root length. […] The Colby's equation is as follows.
E=(x+y)−(x·y)/100 Colby's equation:
E: Expected root length x: Root length in the case of application of hesperidin alone y: Root length in the case of application of neohesperidin alone For each group, 15 measurement results were obtained (N=15).
The subject of assay [4] is lettuce (Green Wave). Nature of the assay: Example 3: High-temperature stress Petri dish test (lettuce), blending with β-carotene. Format: in vivo. The following applies: 0.1 ppm.
Another assay concerns Rice (Koshihikari) seeds. In words: Example 5: High-temperature stress Petri dish test (rice seeds). In kind it is in vivo. The following applies: for Germination rate, Increase rate: non-addition group = 100.0; for Germination rate, Average: seeds 65° C. hot water 10 minutes, 28° C. 5 days. The method, then: Rice (Koshihikari) seeds were soaked in hot water at 65° C. for 10 minutes to perform high-temperature treatment. […] A group similarly soaked in distilled water was provided as a non-addition group. After the soaking treatment, the seeds were dried in air, and then 20 seeds were sown on each of shallow Petri dishes in which qualitative filter paper was placed. To the filter paper in each Petri dish, 5 mL of distilled water was uniformly added dropwise. […] For each group, three measurement results were obtained (N=3).

[5] abbreviates: High-temperature treatment (42° C., 1.5 hours), then 23° C. 2 days.
The mark [6] stands for this setting: High-temperature treatment (42° C., 1.5 hours).

Take `CC1=C(/C=C/C(C)=C/C=C/C(C)=C/C=C/C=C(C)/C=C/C=C(C)/C=C/C2=C(C)C(=O)[C@@H](O)CC2(C)C)C(C)(C)C[C@H](O)C1=O` [Astaxanthin, reference compound]: the figures for the Root length in the assay with lettuce (Green Wave) [1] (setting [5]) and in the assay with lettuce (Green Wave) [1] (Normal cultivation) were 11.1 mm and 20.0 mm, respectively.
The matching figures for `CC1=C(/C=C/C(C)=C/C=C/C(C)=C/C=C/C=C(C)/C=C/C=C(C)/C=C/C(=O)[C@]2(C)C[C@@H](O)CC2(C)C)C(C)(C)C[C@H](O)C1` [Capsanthin, reference compound]: 10.7 mm and 20.4 mm.
For `O=c1c(-c2ccc(O)cc2)coc2cc(O)ccc12` [Daidzein], the Root length came out at 7.5 mm in the assay on lettuce (Green Wave) [2] (setting [6]) and 26.6 mm in the assay on lettuce (Green Wave) [2] (Normal cultivation).
As to `O=c1c(-c2ccc(O)cc2)coc2cc(O)cc(O)c12` [Genistein], the Root length in the assay on lettuce (Green Wave) [2] (setting [6]) stood at 7.4 mm; with lettuce (Green Wave) [2] (Normal cultivation) it was 25.8 mm.
Turning to `COc1ccc([C@@H]2CC(=O)c3c(O)cc(O)cc3O2)cc1O` [Hesperetin, hesperetin], the Root length was found to be 18.0 mm in the assay with lettuce (Green Wave) [1] (setting [5]) and 23.5 mm in the assay with lettuce (Green Wave) [1] (Normal cultivation).
Consider `O=C1C[C@@H](c2ccc(O)cc2)Oc2cc(O)cc(O)c21` [Naringenin], for which the values for the Root length with lettuce (Green Wave) [2] (setting [6]) and with lettuce (Green Wave) [2] (Normal cultivation) were 8.4 mm and 22.1 mm, respectively.
Take `COc1ccc(CCC(=O)c2c(O)cc(O[C@@H]3O[C@H](CO)[C@@H](O)[C@H](O)[C@H]3O[C@@H]3O[C@@H](C)[C@H](O)[C@@H](O)[C@H]3O)cc2O)cc1O` [Neohesperidin dihydrochalcone, neohesperidin dihydrochalcone]: the Root length is 15.3 mm in the assay on lettuce (Green Wave) [1] (setting [5]) and 23.4 mm in the assay on lettuce (Green Wave) [1] (Normal cultivation).
On to `COc1ccc([C@@H]2CC(=O)c3c(O)cc(O[C@@H]4O[C@H](CO)[C@@H](O)[C@H](O)[C@H]4O[C@@H]4O[C@@H](C)[C@H](O)[C@@H](O)[C@H]4O)cc3O2)cc1O` [Neohesperidin], for which the Root length in the assay with lettuce (Green Wave) [1] (setting [5]) was 21.5 mm; in the assay with lettuce (Green Wave) [1] (Normal cultivation), 26.5 mm; in the assay with lettuce (Green Wave) [3] (High-temperature treatment (42° C., 1.5 hours), 0.03 ppm), 4.9 mm; with lettuce (Green Wave) [3] (High-temperature treatment (42° C., 1.5 hours), 0.1 ppm) it was 6.4 mm; in the assay on lettuce (Green Wave) [3] (Normal cultivation, 0.03 ppm) it was 17.6 mm; in the assay on lettuce (Green Wave) [3] (Normal cultivation, 0.1 ppm), 18.1 mm.
As for `COc1ccc(-c2cc(=O)c3c(OC)c(OC)c(OC)c(OC)c3o2)cc1OC` [Nobiletin, nobiletin], the Root length in the assay with lettuce (Green Wave) [1] (setting [5]) turned out to be 14.1 mm; with lettuce (Green Wave) [1] (Normal cultivation) it was 23.1 mm.
The matching figures for `O=C(CCc1ccc(O)cc1)c1c(O)cc(O)cc1O` [Phloretin, phloretin]: 14.8 mm and 21.9 mm.
In the case of `COc1ccc(-c2cc(=O)c3c(OC)c(OC)c(OC)c(OC)c3o2)cc1` [Tangeretin, tangeretin], the Root length is listed as 18.1 mm in the assay on lettuce (Green Wave) [1] (setting [5]) and 23.5 mm in the assay on lettuce (Green Wave) [1] (Normal cultivation).
For the compound `COc1ccc([C@@H]2CC(=O)c3c(O)cc(O[C@@H]4O[C@H](CO[C@@H]5O[C@@H](C)[C@H](O)[C@@H](O)[C@H]5O)[C@@H](O[C@H]5O[C@H](CO)[C@@H](O)[C@H](O)[C@H]5O)[C@H](O)[C@H]4O)cc3O2)cc1O` [α-Monoglucosyl hesperidin, α-monoglucosyl hesperidin], the Root length came to 18.7 mm in the assay with lettuce (Green Wave) [1] (setting [5]) and 23.7 mm in the assay on lettuce (Green Wave) [1] (Normal cultivation).
As to `CC1=C(/C=C/C(C)=C/C=C/C(C)=C/C=C/C=C(C)/C=C/C=C(C)/C=C/C2=C(C)CCCC2(C)C)C(C)(C)CCC1` [β-Carotene, reference compound], the Root length came to 11.2 mm in the assay on lettuce (Green Wave) [1] (setting [5]), 22.3 mm in the assay with lettuce (Green Wave) [1] (Normal cultivation), 7.5 mm in the assay with lettuce (Green Wave) [4] (setting [6]) and 23.8 mm in the assay on lettuce (Green Wave) [4] (Normal cultivation). Also, the “Germination rate, Increase rate” value in the assay with Rice (Koshihikari) seeds (1 ppm) amounted to 118.9%; with Rice (Koshihikari) seeds (10 ppm), 134.0%; in the assay with Rice (Koshihikari) seeds (100 ppm) it was 103.7%. Also, the “Germination rate, Average” value came to 69.9% in the assay with Rice (Koshihikari) seeds (then soaked 1 hour at 1 ppm), 78.8% in the assay with Rice (Koshihikari) seeds (then soaked 1 hour at 10 ppm) and 61.0% in the assay with Rice (Koshihikari) seeds (then soaked 1 hour at 100 ppm).
On to hesperidin methylchalcone, for which the Root length with lettuce (Green Wave) [1] (setting [5]) came to 16.7 mm; with lettuce (Green Wave) [1] (Normal cultivation) it was 22.8 mm.
